For data set [1], the target named is T1, recombinant, human protein tyrosine phosphatase (PTP) 1B (hPTP1B) (Homo sapiens, UniProt P18031).
T1 construct: made in house
T1 sequence (P18031 1-435): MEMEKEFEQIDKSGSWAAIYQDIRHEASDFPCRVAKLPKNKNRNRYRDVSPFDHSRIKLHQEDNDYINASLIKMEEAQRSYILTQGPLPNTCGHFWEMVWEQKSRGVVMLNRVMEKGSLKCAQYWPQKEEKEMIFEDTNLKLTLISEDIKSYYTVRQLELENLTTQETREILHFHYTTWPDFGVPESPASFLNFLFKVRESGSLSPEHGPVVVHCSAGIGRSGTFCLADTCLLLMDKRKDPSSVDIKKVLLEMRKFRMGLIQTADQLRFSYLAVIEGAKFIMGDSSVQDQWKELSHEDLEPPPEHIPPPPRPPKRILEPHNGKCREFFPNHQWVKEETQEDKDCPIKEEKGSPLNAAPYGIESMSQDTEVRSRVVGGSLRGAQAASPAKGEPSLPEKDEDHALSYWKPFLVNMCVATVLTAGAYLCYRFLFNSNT
Briefly: Inhibition of tri-phosphorylated insulin receptor dodecaphosphopeptide dephosphorylation by hPTP1B. The format is biochemical. As to conditions: 50 μM IR triphosphopeptide substrate, 5 min preincubation and 5 min reaction at 37° C., malachite green-ammonium molybdate phosphate detection.

The values below come from patent US7008636B2, “2,3,5-substituted biphenyls useful in the treatment of insulin resistance and hyperglycemia” (Wyeth, priority 1998, dated 2006).

On to `CN(CCCCCCCCc1ccccc1)C(=O)c1cc(-c2cccc(F)c2)c(OCC(=O)O)c(-c2cccc(F)c2)c1` [Example 84], for which the melting point (usually the temperature of the solid-liquid transition) was > 43 °C (dec.). Further, the 50% inhibitory concentration (IC50) (in general, the concentration that inhibits the measured activity by half) in data set [1] was found to be 1030 nM.

For `O=C(O)COc1c(-c2cccc(Cl)c2)cc(C(=O)NCCCCCCCCSc2nc3ccccc3o2)cc1-c1cccc(Cl)c1` [Example 87, {5′-[8-(Benzoxazol-2-ylsulfanyl)-octylcarbamoyl]-3,3″-dichloro-[1,1′;3′1″]-terphenyl-2′-yloxy}acetic acid], the melting point is > 68 °C (dec.). Moreover, the concentration for half-maximal inhibition (IC50) in data set [1] stood at 332 nM.

For `O=C(O)COc1c(-c2cccc(Cl)c2)cc(C(=O)NCCCCCCCCn2ccc3ccccc32)cc1-c1cccc(Cl)c1` [Example 88, [3,3″-Dichloro-5′-(8-indol-1-yl-octylcarbamoyl)-[1,1′;3′1″]terphenyl-2′-yloxy]acetic acid], the melting point was > 84 °C (dec.). Moreover, the IC50 in data set [1] was 137 nM.

Turning to `N#Cc1cccc(OCCCCCCCCNC(=O)c2cc(-c3cccc(Cl)c3)c(OCC(=O)O)c(-c3cccc(Cl)c3)c2)c1` [Example 89, {3,3″-Dichloro-5′-[8-(3-cyano-phenoxy)-octylcarbamoyl]-[1,1′;3′1″]terphenyl-2′-yloxy}acetic acid], the melting point is > 61 °C (dec.). In addition, in data set [1], the IC50 was determined as 173 nM.

`O=C(O)COc1c(-c2cccc(Cl)c2)cc(C(=O)NCCCCCCCCOCc2ccc(Cl)cc2)cc1-c1cccc(Cl)c1` [Example 90, {3,3″-Dichloro-5′-[8-(4-chloro-benzyloxy)-octylcarbamoyl]-[1,1′;3′1″]terphenyl-2′-yloxy}acetic acid] registered a melting point of 128 to 131 °C. Further, in data set [1], the IC50 amounted to 100 nM.

Turning to `Cc1cc(OCCCCCCCCNC(=O)c2cc(-c3cccc(Cl)c3)c(OCC(=O)O)c(-c3cccc(Cl)c3)c2)ccc1F` [Example 91, {3,3″-Dichloro-5′-[8-(4-fluoro-3-methyl-phenoxy)-octylcarbamoyl]-[1,1′;3′1″]terphenyl-2′-yloxy}acetic acid], the melting point lay in the range of 138 to 140 °C. The IC50 in data set [1] amounted to 313 nM.

For the compound `O=C(O)COc1c(-c2cccc(Cl)c2)cc(C(=O)NCCCCCCCCn2ccnc2)cc1-c1cccc(Cl)c1` [Example 92, [3,3″-Dichloro-5′-(8-imidazol-1-yl-octylcarbamoyl)-[1,1′;3′1″]terphenyl-2′-yloxy]acetic acid], the melting point is > 109 °C (dec.). Further, the IC50 in data set [1] came to 471 nM.

For the compound `O=C(O)COc1c(-c2cccc(Cl)c2)cc(C(=O)NCCCCCCOC(=O)Nc2ccc(Oc3ccccc3)cc2)cc1-c1cccc(Cl)c1` [Example 95, {3,3″-Dichloro-5′-[6-(4-phenoxy-phenylcarbamoyloxy)-hexylcarbamoyl]-[1,1′;3′1″]terphenyl-2′-yloxy}acetic acid], the melting point is > 75 °C (dec.). In addition, the IC50 in data set [1] was 641 nM.

As for `O=C(O)COc1c(-c2cccc(Cl)c2)cc(C(=O)NCCCCCCCCn2ccc3cc(F)ccc32)cc1-c1cccc(Cl)c1` [Example 96, {3,3″-Dichloro-5′-[8-(5-fluoro-indol-1-yl)-octylcarbamoyl]-[1,1′;3′1″]terphenyl-2′-yloxy}acetic acid], the melting point was 141 to 144 °C. In addition, the IC50 in data set [1] amounted to 137 nM.

With `COc1ccc2c(ccn2CCCCCCCCNC(=O)c2cc(-c3cccc(Cl)c3)c(OCC(=O)O)c(-c3cccc(Cl)c3)c2)c1` [Example 97, {3,3″-Dichloro-5′-[8-(5-methoxy-indol-1-yl)-octylcarbamoyl]-[1,1′;3′1″]terphenyl-2′-yloxy}acetic acid], the melting point was > 70 °C (dec.). Besides, the IC50 in data set [1] is 186 nM.

Take `Cc1ccc2c(c1)cc(C)n2CCCCCCCCNC(=O)c1cc(-c2cccc(Cl)c2)c(OCC(=O)O)c(-c2cccc(Cl)c2)c1` [Example 98, {3,3″-Dichloro-5′-[8-(2,5-dimethyl-indol-1-yl)-octylcarbamoyl]-[1,1′;3′1″]-terphenyl-2′-yloxy}acetic acid]: the melting point is > 172 °C (dec.). In addition, the IC50 in data set [1] amounted to 132 nM.

As to `COc1ccc2c(c1)cc(C)n2CCCCCCCCNC(=O)c1cc(-c2cccc(Cl)c2)c(OCC(=O)O)c(-c2cccc(Cl)c2)c1` [Example 99, {3,3″-Dichloro-5′-[8-(5-methoxy-2-methyl-indol-1-yl)-octylcarbamoyl]-[1,1′;3′1″]-terphenyl-2′-yloxy}acetic acid], the melting point was > 75 °C (dec.). Also, the IC50 in data set [1] was determined as 267 nM.

Take `O=C(O)COc1c(-c2cccc(Cl)c2)cc(C(=O)NCC2(COCCCCc3ccccc3)CC2)cc1-c1cccc(Cl)c1` [Example 100, (3,3″-Dichloro-5′-{[1-(4-phenyl-butoxymethyl)-cyclopropylmethyl]-carbamoyl}-[1,1′;3′1″]terphenyl-2′-yloxy)acetic acid]: the melting point was > 52 °C (dec.). In data set [1], the IC50 worked out at 389 nM.

`CC(C)(COc1c(-c2cccc(C(F)(F)F)c2)cc(C(=O)NCCCCCCCc2ccccc2)cc1-c1cccc(C(F)(F)F)c1)C(=O)O` [Example 129, 2,2-Dimethyl-3-[5′-(7-phenyl-heptylcarbamoyl)-3,3″-bis-trifluoromethyl-[1,1′:3′,1″]terphenyl-2′-yloxy]-propionic acid] showed a melting point of 130 to 132 °C. The IC50 in data set [1] came out at 162 nM.

As for `Cc1cccc(-c2cc(C(=O)NCCCCCCCc3ccccc3)cc(-c3cccc(C)c3)c2OCC(=O)O)c1` [Example 145, [3,3″-Dimethyl-5′-(7-phenyl-heptylcarbamoyl)-[1,1′:3′,1″]terphenyl-2′-yloxy]acetic acid], the melting point was 58 to 62 °C. In addition, the IC50 in data set [1] came out at 1150 nM.

`Cc1cc(C)cc(-c2cc(C(=O)NCCCCCCCc3ccccc3)cc(-c3cc(C)cc(C)c3)c2OCCCC(=O)O)c1` [Example 148, 4-[3,5,3″,5″-Tetramethyl-5′-(7-phenyl-heptylcarbamoyl)-[1,1′:3′,1″]terphenyl-2′-yloxy]-butyric acid] yielded a melting point of 64 to 66 °C. Besides, the IC50 in data set [1] worked out at 249 nM.

As for `CCCCCCCCCCCCNC(=O)c1cc(Br)c(OCC(=O)O)c(-c2ccccc2F)c1` [Example 156, (3-Bromo-5-dodecylcarbamoyl-2′-fluoro-biphenyl-2-yloxy)acetic acid], the melting point fell in the range of 128 to 138 °C. The concentration for half-maximal inhibition (IC50) in data set [1] stood at 278 nM.

Turning to `COc1ccc(-c2cc(C(=O)NCCCCCCCCc3ccccc3)cc(-c3cccc(C(F)(F)F)c3)c2OCC(=O)O)cc1` [Example 158, [4″-Methoxy-5′-(8-phenyl-octylcarbamoyl)-3-trifluoromethyl-[1,1′;3′,1″]terphenyl-2′-yloxy]acetic acid], the melting point is 139 to 144 °C. Besides, in data set [1], the 50% inhibitory concentration (IC50) is 246 nM.

Compound `CCCCCCCCCCCCNC(=O)c1cc(-c2cc(Cl)cc(Cl)c2)c(OCC(=O)O)c(-c2cc(Cl)cc(Cl)c2)c1` [Example 159, (3,5,3″,5″-Tetrachloro-5′-dodecylcarbamoyl-[1,1′;3′,1″]terphenyl-2′-yloxy)acetic acid] came in with a melting point of 139 to 144 °C. Moreover, the 50% inhibitory concentration (IC50) in data set [1] turned out to be 44 nM.

In the case of `O=C(O)COc1c(-c2cc(Cl)cc(Cl)c2)cc(C(=O)NCCCCCCCCc2ccccc2)cc1-c1cc(Cl)cc(Cl)c1` [Example 160, [3,5,3″,5″-Tetrachloro-5′-(8-phenyl-octylcarbamoyl)-[1,1′;3′,1″]terphenyl-2′-yloxy]acetic acid], the melting point was in the range of 139 to 149 °C. The IC50 in data set [1] turned out to be 54 nM.
